Assay results: ChEMBL document CHEMBL3045238, “Structure-Activity Studies of Insecticidal 2-Methoxy-1, 3, 2-oxazaphospholidine 2-Sulfides against Musca domestica and Tribolium castaneum” (J Pestic Sci, 1990)

Assays:
[1] = tested on: Musca domestica; test: Insecticidal activity against female Musca domestica (house fly) assessed as mortality compound topically applied to the abdomen measured per fly after 24 hr; format: functional
[2] = tested on: Tribolium castaneum; test: Insecticidal activity against fourth-instar Tribolium castaneum (red flour beetle) assessed as inhibition of larval weight gain at 30 degC measured after 2 days by feeding method; format: functional

COP1(=S)NCC(c2ccc3ccccc3c2)O1 (configuration not stated)
LD50 [1]: 0.64 µg | I50 [2]: 11 ppm

COP1(=S)NCC(c2ccc(-c3ccccc3)cc2)O1 (configuration not stated)
LD50 [1]: >1 µg | I50 [2]: 62 ppm

COc1ccccc1C1CNP(=S)(OC)O1 (configuration not stated)
LD50 [1]: >1 µg | I50 [2]: 41 ppm

COc1cccc(C2CNP(=S)(OC)O2)c1 (configuration not stated)
LD50 [1]: 0.18 µg | pLD50 [1]: 3.16 | I50 [2]: 46 ppm

COc1cccc(C2(C)CNP(=S)(OC)O2)c1 (configuration not stated)
LD50 [1]: >1 µg | I50 [2]: >100 ppm

COc1cccc(C2CNP(=S)(OC)O2)c1OC (configuration not stated)
LD50 [1]: 0.53 µg | I50 [2]: 6.6 ppm

COc1ccc(OC)c(C2CNP(=S)(OC)O2)c1 (configuration not stated)
LD50 [1]: >1 µg | I50 [2]: 22 ppm

COc1ccc(C2CNP(=S)(OC)O2)cc1OC (configuration not stated)
LD50 [1]: >1 µg | I50 [2]: >100 ppm

COc1cc(OC)cc(C2CNP(=S)(OC)O2)c1 (configuration not stated)
LD50 [1]: 1.12 µg | I50 [2]: >100 ppm

COc1cc(C2CNP(=S)(OC)O2)cc(OC)c1OC (configuration not stated)
LD50 [1]: >1 µg | I50 [2]: >100 ppm

COP1(=S)NCC(c2ccc3c(c2)OCO3)O1 (configuration not stated)
LD50 [1]: >1 µg | I50 [2]: >100 ppm

COP1(=S)NCC(c2cccc(Oc3ccccc3)c2)O1 (configuration not stated)
LD50 [1]: >1 µg | I50 [2]: >100 ppm

COP1(=S)NCC(c2cccc([N+](=O)[O-])c2)O1 (configuration not stated)
LD50 [1]: >1 µg | I50 [2]: >100 ppm

COP1(=S)NCC(c2ccc([N+](=O)[O-])cc2)O1 (configuration not stated)
LD50 [1]: >1 µg | I50 [2]: >100 ppm

COP1(=S)NCC(c2ccc(Cl)cc2Cl)O1 (configuration not stated)
LD50 [1]: 0.8 µg | I50 [2]: >100 ppm

COP1(=S)NCC(c2c(Cl)cccc2Cl)O1 (configuration not stated)
LD50 [1]: >1 µg | I50 [2]: 49 ppm

COP1(=S)NCC(c2ccc(Cl)c(Cl)c2)O1 (configuration not stated)
LD50 [1]: >1 µg | I50 [2]: >100 ppm

COP1(=S)NCC(c2cc(Cl)cc(Cl)c2)O1 (configuration not stated)
LD50 [1]: >1 µg | I50 [2]: >100 ppm

COP1(=S)NCC(c2ccccc2F)O1 (configuration not stated)
LD50 [1]: 0.14 µg | pLD50 [1]: 3.25 | I50 [2]: 41 ppm

COP1(=S)NCC(C)(c2ccccc2F)O1 (configuration not stated)
LD50 [1]: 1.26 µg | I50 [2]: >100 ppm

COP1(=S)NCC(c2cccc(F)c2)O1 (configuration not stated)
LD50 [1]: 0.16 µg | pLD50 [1]: 3.19 | I50 [2]: >100 ppm

COP1(=S)NCC(c2ccc(F)cc2)O1 (configuration not stated)
LD50 [1]: 0.083 µg | pLD50 [1]: 3.47 | I50 [2]: >100 ppm

COP1(=S)NCC(c2cccc(F)c2F)O1 (configuration not stated)
LD50 [1]: >1 µg | I50 [2]: >100 ppm

COP1(=S)NCC(c2ccc(F)cc2F)O1 (configuration not stated)
LD50 [1]: 0.35 µg | I50 [2]: >100 ppm

COP1(=S)NCC(c2cc(F)ccc2F)O1 (configuration not stated)
LD50 [1]: 0.32 µg | I50 [2]: >100 ppm

COP1(=S)NCC(c2c(F)cccc2F)O1 (configuration not stated)
LD50 [1]: 0.82 µg | I50 [2]: >100 ppm

COP1(=S)NCC(c2ccc(F)c(F)c2)O1 (configuration not stated)
LD50 [1]: 0.59 µg | I50 [2]: >100 ppm

COP1(=S)NCC(c2cc(F)cc(F)c2)O1 (configuration not stated)
LD50 [1]: >1 µg | I50 [2]: >100 ppm

COP1(=S)NCC(c2ccccc2C)O1 (configuration not stated)
LD50 [1]: 0.27 µg | pLD50 [1]: 2.95 | I50 [2]: 35 ppm

COP1(=S)NCC(c2cccc(C)c2)O1 (configuration not stated)
LD50 [1]: >1 µg | I50 [2]: 15 ppm

COP1(=S)NCC(C)(c2cccc(C)c2)O1 (configuration not stated)
LD50 [1]: >1 µg | I50 [2]: >100 ppm

COP1(=S)NCC(c2ccc(C)cc2)O1 (configuration not stated)
LD50 [1]: 0.084 µg | pLD50 [1]: 3.46 | I50 [2]: 5.5 ppm

COP1(=S)NCC(c2ccccc2C(F)(F)F)O1 (configuration not stated)
LD50 [1]: >1 µg | I50 [2]: >100 ppm
